Source: the NIST ThermoML archive (doi:10.1021/je8003723)
Numbers after ± are expanded uncertainties.

Assays:
[1] = 308.15 K, 101.3 kPa, Liquid; for viscosity: Capillary tube (Ostwald / Ubbelohde) method; for mass density: Pycnometric method; for speed of sound: Sing-around technique in a fixed-path interferometer
[2] = xn = mol fraction of the nth substance listed; conditions: 308.15 K, 101 kPa, Liquid; for viscosity: Capillary tube (Ostwald / Ubbelohde) method; for mass density: Pycnometric method; for speed of sound: Sing-around technique in a fixed-path interferometer

CC(=O)CC(C)C [4-methylpentan-2-one]
viscosity [1]: 0.455 ± 0.011 mPa·s
mass density [1]: 786.8 ± 0.3 kg/m3
speed of sound [1]: 1150 ± 7 m/s

CC(=O)CC(C)C [4-methylpentan-2-one] + N#CCc1ccccc1
viscosity ([2]; x2 = 0): 0.455 ± 0.011 mPa·s
mass density ([2]; x2 = 0): 786.8 ± 0.3 kg/m3
speed of sound ([2]; x2 = 0): 1150 ± 7 m/s

N#CCc1ccccc1 [benzeneacetonitrile]
viscosity [1]: 1.585 ± 0.021 mPa·s
mass density [1]: 1003.2 ± 1.1 kg/m3
speed of sound [1]: 1518 ± 9 m/s

N#CCc1ccccc1 [benzeneacetonitrile] + CC(=O)CC(C)C
viscosity ([2]; x1 = 0.0271): 0.475 ± 0.011 mPa·s
viscosity ([2]; x1 = 0.16): 0.573 ± 0.011 mPa·s
viscosity ([2]; x1 = 0.2926): 0.679 ± 0.012 mPa·s
viscosity ([2]; x1 = 0.3931): 0.775 ± 0.012 mPa·s
viscosity ([2]; x1 = 0.5217): 0.91 ± 0.013 mPa·s
viscosity ([2]; x1 = 0.6436): 1.049 ± 0.014 mPa·s
viscosity ([2]; x1 = 0.7407): 1.164 ± 0.016 mPa·s
viscosity ([2]; x1 = 0.8599): 1.338 ± 0.018 mPa·s
viscosity ([2]; x1 = 0.9758): 1.523 ± 0.02 mPa·s
viscosity ([2]; x1 = 1): 1.585 ± 0.021 mPa·s
mass density ([2]; x1 = 0.0271): 792.5 ± 0.3 kg/m3
mass density ([2]; x1 = 0.16): 823.3 ± 0.4 kg/m3
mass density ([2]; x1 = 0.2926): 852.2 ± 0.5 kg/m3
mass density ([2]; x1 = 0.3931): 874.6 ± 0.5 kg/m3
mass density ([2]; x1 = 0.5217): 902.8 ± 0.6 kg/m3
mass density ([2]; x1 = 0.6436): 928.9 ± 0.7 kg/m3
mass density ([2]; x1 = 0.7407): 949.8 ± 0.8 kg/m3
mass density ([2]; x1 = 0.8599): 976 ± 0.9 kg/m3
mass density ([2]; x1 = 0.9758): 998.1 ± 1.1 kg/m3
mass density ([2]; x1 = 1): 1003.2 ± 1.1 kg/m3
speed of sound ([2]; x1 = 0.0271): 1166 ± 7 m/s
speed of sound ([2]; x1 = 0.16): 1212 ± 7 m/s
speed of sound ([2]; x1 = 0.2926): 1261 ± 8 m/s
speed of sound ([2]; x1 = 0.3931): 1298 ± 8 m/s
speed of sound ([2]; x1 = 0.5217): 1340 ± 8 m/s
speed of sound ([2]; x1 = 0.6436): 1382 ± 8 m/s
speed of sound ([2]; x1 = 0.7407): 1414 ± 9 m/s
speed of sound ([2]; x1 = 0.8599): 1459 ± 9 m/s
speed of sound ([2]; x1 = 0.9758): 1498 ± 9 m/s
speed of sound ([2]; x1 = 1): 1518 ± 9 m/s

N#CCc1ccccc1 [benzeneacetonitrile] + CCC(=O)CC
viscosity ([2]; x1 = 0.0235): 0.388 ± 0.011 mPa·s
viscosity ([2]; x1 = 0.1407): 0.474 ± 0.011 mPa·s
viscosity ([2]; x1 = 0.2569): 0.567 ± 0.012 mPa·s
viscosity ([2]; x1 = 0.358): 0.665 ± 0.013 mPa·s
viscosity ([2]; x1 = 0.4803): 0.79 ± 0.014 mPa·s
viscosity ([2]; x1 = 0.6048): 0.936 ± 0.015 mPa·s
viscosity ([2]; x1 = 0.6943): 1.064 ± 0.016 mPa·s
viscosity ([2]; x1 = 0.8378): 1.281 ± 0.018 mPa·s
viscosity ([2]; x1 = 0.9722): 1.528 ± 0.02 mPa·s
viscosity ([2]; x1 = 1): 1.585 ± 0.021 mPa·s
mass density ([2]; x1 = 0.0235): 806 ± 0.7 kg/m3
mass density ([2]; x1 = 0.1407): 835.4 ± 0.8 kg/m3
mass density ([2]; x1 = 0.2569): 861.5 ± 0.8 kg/m3
mass density ([2]; x1 = 0.358): 883.3 ± 0.9 kg/m3
mass density ([2]; x1 = 0.4803): 909 ± 0.9 kg/m3
mass density ([2]; x1 = 0.6048): 933.7 ± 1 kg/m3
mass density ([2]; x1 = 0.6943): 951.2 ± 1 kg/m3
mass density ([2]; x1 = 0.8378): 976.7 ± 1 kg/m3
mass density ([2]; x1 = 0.9722): 998.9 ± 1.1 kg/m3
mass density ([2]; x1 = 1): 1003.2 ± 1.1 kg/m3
speed of sound ([2]; x1 = 0.0235): 1199 ± 8 m/s
speed of sound ([2]; x1 = 0.1407): 1237 ± 8 m/s
speed of sound ([2]; x1 = 0.2569): 1278 ± 8 m/s
speed of sound ([2]; x1 = 0.358): 1314 ± 8 m/s
speed of sound ([2]; x1 = 0.4803): 1354 ± 8 m/s
speed of sound ([2]; x1 = 0.6048): 1397 ± 9 m/s
speed of sound ([2]; x1 = 0.6943): 1421 ± 9 m/s
speed of sound ([2]; x1 = 0.8378): 1471 ± 9 m/s
speed of sound ([2]; x1 = 0.9722): 1496 ± 9 m/s
speed of sound ([2]; x1 = 1): 1518 ± 9 m/s
